# System: Sonic hedgehog signaling
# Test: Clonal NIH-3T3 line with stably integrated Shh-responsive luciferase reporter (Shh-LIGHT/Shh-LIGHT2), inhibition of Sonic hedgehog induction
# Type: cell-based, mouse
# Conditions: for improvement of inhibitory activity by oxidation of the hydroxyl group to a ketone: versus the corresponding 3-hydroxyl compound (18, 20, 22, 33, 40, 50); for effect of N-alkyl modification on ability to block Shh signaling / effect of addition on inhibitory activity: SAR statement, relative to cyclopamine
# Text: FIG. 2 relates to a sensitive assay for Shh signaling in NIH-3T3 cells. (A) Purification of cholesterol- and palmitate-modified mouse Sonic hedgehog signaling domain ShhNp. Detergent-insoluble proteolipid complexes were isolated from 293 cells expressing full-length Shh (M. K. Cooper, J. A. Porter, K. E. Young, P. A. Beachy, Science 280, 1603 (1998)), and ShhNp was purified to apparent homogeneity by immunoaffinity chromatography. […] We therefore used the detergent insolubility of cholesterol-modified ShhN and affinity chromatography to purify the processed ShhN protein (ShhNp) from a human 293 cell line engineered to express the full length mouse Shh construct. Detergent-insoluble complexes (DIGs) were isolated as described by Brown and Rose (1992), with the following modifications. Cells from a 150 mm dish were lysed and collected in 2 mL of lysis solution (10 mM NaHPO4, pH 6.5, 150 mM NaCl, 0.5 mM PMSF, 1% Triton X-100, 2 μg/ml Pepstatin A, 10 μg/ml leupeptin, 5 μg/ml aprotinin, 2 μg/ml E64) at 4° C. […] Low-density, flocculent material was collected (from original position of 18.125% step), diluted 5-fold in 10 mM NaHPO4, pH 6.5, 150 mM NaCl and harvested by centrifugation at 20,000×g for 15 min (all at 4° C.). […] Mass standards migrated as indicated. […] NIH-3T3 cells cotransfected with Gli-luc reporter and TK promoter-driven Renilla luciferase control were treated with the indicated concentrations of ShhNp for 2 days. Confluent cultures of NIH-3T3 cells were plated at 1:6 dilution to 24 or 96-well plates. On the following day, the cells were transfected with renilla luciferase (pRL-TK or pRL-SV40; Clontech) or β-galactosidase transfection control (10% w/w DNA), Gli-Luc reporter (40%) and the constructs indicated (50%) using Fugene 6 (Roche) transfection reagent (250 ng (24 well plate) or 100 ng (96 well plate) DNA/well, 3:1 ratio (v/w) of reagent to DNA). […] Firefly and Renilla luciferase and β-galactosidase activities were assayed from the cell lysates by luminometry using dual luciferase (Promega) and Galacto-Light (Tropix) kits, respectively. Luciferase activities are normalized relative to control; a representative experiment is shown. […] Error bars indicate one standard deviation. […] Cultures of Shh-LIGHT (open boxes) or SmoA1-LIGHT (filled diamonds) cells were plated to 96-well plates in a series of twofold dilutions. The NIH-3T3 cell clone Shh-LIGHT and Shh-LIGHT2 stably incorporating the Gli-luc reporter and TK-renilla vectors were established by cotransfection with a vector encoding G418 resistance (pSV-Neo), followed by selection with G418 and cell cloning. Subsequently, a clonal subline of Shh-LIGHT expressing activated Smo (SmoA1-LIGHT) was established using an expression vector that allows hygromycin selection (pcDNA3.1+ hygro; Invitrogen). […] The Shh-LIGHT cells were treated with 4 nM ShhNp, and Gli-luciferase reporter activity was assayed after 24 h. Fold induction of the reporter (% of maximum is relative to equally dense Shh-LIGHT control culture) and cell densities (% of maximum Renilla luciferase activity) were measured at the end of the experiment. Error bars indicate one standard deviation (quadruplicate wells).
# Relative reporter activity is normalized to maximum. […] Error bars in A and B indicate one standard deviation.
# [1] = Mus musculus, NIH3T3, concentration for 50% inhibition of Sonic hedgehog induction, Table II
# [2] = concentration for 50% inhibition of Sonic hedgehog induction, Table II
molecule,measurement,setting,value
"CC1=C2C[C@H]3[C@@H](CC=C4CC(=O)CC[C@@]43C)[C@@H]2CC[C@]12O[C@@H]1C[C@H](C)CN(CCNC(=O)c3ccc(C(=O)c4ccccc4)cc3)[C@H]1[C@H]2C [Compound 21, 3-Keto, N—(N′-(4-benzoylbenzoyl)aminoethyl)cyclopamine]",IC50,[1],> 10 nM
same,improvement of inhibitory activity by oxidation of the hydroxyl group to a ketone,,approximately two-fold
"CC1=C2C(=O)[C@H]3[C@@H](CC=C4C[C@@H](OC(=O)NCCNC(=O)CCc5ccccc5)CC[C@@]43C)[C@@H]2CC[C@]12O[C@@H]1C[C@H](C)CN[C@H]1[C@H]2C [Compound 12, 3O-dihydrocinnamoylethylenediaminecarbamoyl jervine]",IC50 relative to cyclopamine (times higher),,~100 times
same,potency relative to cycloposine (3) (times weaker),,10 times
same,IC50,[1],> 10000 nM
"N—(N′—(N″,N′″-(4-Benzoylbenzoyl) (N″″-digoxigenin 3-O-methylcarbonyl aminocaproyl)lysine)aminoethyl)cyclopamine [Compound 57]",IC50,[2],> 10000 nM
"CC(=O)CCC(=O)N[C@@H](Cc1ccc(C(=O)c2ccccc2)cc1)C(=O)NCCN1C[C@@H](C)C[C@H]2O[C@]3(CC[C@@H]4C(=C3C)CC3[C@H]4CC=C4C[C@@H](O)CC[C@@]43C)C(C)[C@@H]21 (stereo partly drawn) [Compound 50, N—(N′—(N″-Levulinoyl(4-benzoylphenylalaminoyl))aminoethyl)cyclopamine]",IC50,[1],> 1000 nM
same,effect of N-alkyl modification on ability to block Shh signaling,,significantly abrogate biological activity
"CC1=C2C[C@H]3[C@@H](CC=C4CC(=O)CC[C@@]43C)[C@@H]2CC[C@]12O[C@@H]1C[C@H](C)CN(CCNC(=O)CCCCCNC(=O)CCc3ccccc3)[C@H]1[C@H]2C [Compound 34, 3-Keto, N—(N′—(N″-dihydrocinnamoylaminocaproyl)aminoethyl)cyclopamine]",potency relative to cyclopamine,,ten-fold greater
same,IC50,"Mus musculus, NIH3T3, concentration for 50% inhibition of Sonic hedgehog induction",30 nM
same,IC50,[1],> 10 nM
same,improvement of inhibitory activity by oxidation of the hydroxyl group to a ketone,,approximately two-fold
"CC1=C2C[C@H]3[C@@H](CC=C4C[C@@H](O)CC[C@@]43C)[C@@H]2CC[C@]12O[C@@H]1C[C@H](C)CN(CCNC(=O)CCCCCCCCCCCNC(=O)C(F)(F)F)[C@H]1[C@H]2C [Compound 29, N—(N′—(N″-Trifluoroacetyl aminododecanoyl) aminoethyl)cyclopamine]",IC50,[1],> 100 nM
same,effect of N-alkyl modification on ability to block Shh signaling,,do not significantly diminish
same,effect of addition on inhibitory activity,,accentuate inhibitory activity
"CC1=C2C[C@H]3[C@@H](CC=C4C[C@@H](O)CC[C@@]43C)[C@@H]2CC[C@]12O[C@@H]1C[C@H](C)CN(CCNC(=O)C(CCCCNC(=O)CCCCCNC(=O)CCCC[C@@H]3SC[C@@H]4NC(=O)N[C@@H]43)NC(=O)c3ccc(C(=O)c4ccccc4)cc3)[C@H]1[C@H]2C (stereo partly drawn) [Compound 58, N—(N′—(N″,N′″-(4-Benzoylbenzoyl)(N″″-biotinoylaminocaproyl)lysine)aminoethyl)cyclopamine]",IC50,[1],> 10000 nM
"CCC(=O)NCCCCCC(=O)NCCN1C[C@@H](C)C[C@H]2O[C@]3(CC[C@@H]4C(=C3C)C[C@H]3[C@H]4CC=C4C[C@@H](O)CC[C@@]43C)[C@H](C)[C@@H]21 [Compound 42, N—(N′—(N″-Propionyl aminocaproyl)aminoethyl)cyclopamine]",IC50,[1],> 100 nM
"CC1=C2C[C@H]3[C@@H](CC=C4C[C@@H](O)CC[C@@]43C)[C@@H]2CC[C@]12O[C@@H]1C[C@H](C)CN(CCNC(=O)CCCCCNC(=O)CCc3ccccc3)[C@H]1[C@H]2C [Compound 33, N—(N′—(N″-Dihydrocinnamoyl aminocaproyl)aminoethyl)cyclopamine]",effect of N-alkyl modification on ability to block Shh signaling,,do not significantly diminish
same,effect of addition on inhibitory activity,,accentuate inhibitory activity
same,IC50,[2],> 10 nM
"CC1=C2C[C@H]3[C@@H](CC=C4C[C@@H](O)CC[C@@]43C)[C@@H]2CC[C@]12O[C@@H]1C[C@H](C)CN(CCNC(=O)CCc3ccccc3)[C@H]1[C@H]2C [Compound 18, N—(N′-Dihydrocinnamoyl aminoethyl)cyclopamine]",IC50,[1],> 100 nM
N—(N′—(N″-Azidoiodophenylpropionyl aminocaproyl)aminoethyl)cyclopamine [Compound 39],effect of N-alkyl modification on ability to block Shh signaling,,do not significantly diminish
same,effect of addition on inhibitory activity,,accentuate inhibitory activity
same,IC50,[2],> 100 nM
"CC1=C2C[C@H]3[C@@H](CCC4=CC(=O)CC[C@@]43C)[C@@H]2CC[C@]12O[C@@H]1C[C@H](C)CN(CCNC(=O)CCCCCNC(=O)CCCCC3SC[C@@H]4NC(=O)N[C@H]34)[C@H]1[C@H]2C (stereo partly drawn) [Compound 41, 3-Enone, N—(N′—(N″-Biotinoylaminocaproyl)aminoethyl)cyclopamine]",effect of enone formation (C5-C6 olefin migrated to C4-C5) on potency,,does not appear to affect compound potency
same,IC50,[1],> 100 nM
same,improvement of inhibitory activity by oxidation of the hydroxyl group to a ketone,,approximately two-fold
"CC1=CC(C)=[N+]2C1=Cc1ccc(CCC(=O)NCCCCCC(=O)NCCN3C[C@@H](C)C[C@H]4O[C@]5(CC[C@@H]6C(=C5C)C[C@H]5[C@H]6CC=C6C[C@@H](O)CC[C@@]65C)[C@H](C)[C@@H]43)n1[B-]2(F)F [Compound 43, N—(N′—(N″-BODIPY FL aminocaproyl)aminoethyl)cyclopamine]",effect of N-alkyl modification on ability to block Shh signaling,,do not significantly diminish
same,effect of addition on inhibitory activity,,accentuate inhibitory activity
same,IC50,[2],> 100 nM
"CC(=O)CCC(=O)N[C@@H](Cc1ccc(C(=O)c2ccccc2)cc1)C(=O)NCCN1C[C@@H](C)C[C@H]2O[C@]3(CC[C@@H]4C(=C3C)CC3[C@H]4CC=C4CC(=O)CC[C@@]43C)[C@H](C)[C@@H]21 (stereo partly drawn) [Compound 51, 3-Keto N—(N′—(N″-Levulinoyl(4-benzoylphenylalaminoyl))aminoethyl) cyclopamine]",IC50,[1],> 1000 nM
same,improvement of inhibitory activity by oxidation of the hydroxyl group to a ketone,,approximately two-fold
"CC1=C2C[C@H]3[C@@H](CC=C4C[C@@H](OC(=O)NCCNC(=O)CCc5ccccc5)CC[C@@]43C)[C@@H]2CC[C@]12O[C@@H]1C[C@H](C)CN[C@H]1[C@H]2C [Compound 8, 3O-dihydrocinnamoylethylenediaminecarbamoyl cyclopamine]",IC50 relative to cyclopamine (times higher),,~100 times
same,potency relative to cycloposine (3) (times weaker),,10 times
"CCC(=O)NCCN1C[C@@H](C)C[C@H]2O[C@]3(CC[C@@H]4C(=C3C)C[C@H]3[C@H]4CC=C4C[C@@H](O)CC[C@@]43C)[C@H](C)[C@@H]21 [Compound 30, N—(N′-Propionyl aminoethyl)cyclopamine]",IC50,[1],> 100 nM
"CC1=C2C[C@H]3[C@@H](CC=C4C[C@@H](O)CC[C@@]43C)[C@@H]2CC[C@]12O[C@@H]1C[C@H](C)CN(CCNC(=O)CCCCCNC(=O)CCCCC3SC[C@@H]4NC(=O)N[C@H]34)[C@H]1[C@H]2C (stereo partly drawn) [Compound 40, N—(N′—(N″-Biotinoyl aminocaproyl)aminoethyl)cyclopamine]",IC50,[1],> 100 nM
same,effect of N-alkyl modification on ability to block Shh signaling,,do not significantly diminish
"CC1=C2C[C@H]3[C@@H](CC=C4CC(=O)CC[C@@]43C)[C@@H]2CC[C@]12O[C@@H]1C[C@H](C)CN(CCNC(=O)CCc3ccccc3)[C@H]1[C@H]2C [Compound 19, 3-Keto, N—(N′-dihydrocinnamoylaminoethyl)cyclopamine]",IC50,[1],> 10 nM
same,improvement of inhibitory activity by oxidation of the hydroxyl group to a ketone,,approximately two-fold
